Measurements: patent US20040170669A1, “Feed rations and methods of feeding growing ruminants” (priority 2002, published 2004)
Marks after values point to notes of the source that are not given here.

Experiments:
[1] = 112-day feeding trial: growing beef cattle fed bermudagrass hay plus molasses-based supplements with corn gluten meal or Alimet; format: in vivo, Angus-Brahman crossbred cattle; details: for Liquid supplement refusal: molasses based supplement remaining from last feeding: one value per feeding date; for BCS change (0-112 days): body condition score; for Added gain: over control; for TDN consumed: total digestible nutrients
Description: An experiment was conducted to study the effect of increasing quantities of methionine from corn gluten meal, an 88% free acid solution of 2-hydroxy-4-(methylthio)butanoic acid sold under the trademark Alimet® (Novus International, Inc., St. Louis, Mo.), on the performance of growing beef cattle fed bermuda grass hay supplemented with molasses-based supplements. The experiment evaluated the effects of adding corn gluten meal or Alimet® to diets of hay supplemented with molasses-based supplements fed to growing beef cattle.
This experiment evaluated corn gluten meal and Alimet® fed to growing beef cattle at four levels to provide 0, 2, 4, and 6 gm/day of added bypass total sulfur amino acids (TSAA) assuming a 40% bypass of Alimet®. An […] treatment was formulated to provide 8 gm/day of added bypass TSAA from Alimet®. Both TSAA sources were provided in a liquid supplement slurry containing 82% fortified molasses (fortified with ‘12% crude protein, minerals, vitamins) and 18% ground corn or corn gluten meal. Corn gluten meal replaced corn in the supplement keeping the proportion of dry ingredients in the supplement similar across TSAA sources and levels. All supplements were offered to growing cattle to provide 3.28 lb/day of total digestible nutrients (TDN). Supplements were formulated to provide adequate nitrogen in the form of rumen degradable intake protein (DIP) with 0.18 lb DIP provided for each pound of TDN. Much of the DIP in supplements was provided by urea.
This experiment was conducted at the Santa Fe Beef Unit located near Gainesville. Thirty-two pens (4 head/pen) of Angus-Brahman crossbred cattle (9-12 months of age) were assigned randomly within sex and breed type. The calves averaged 610 lb and calves were in excellent body condition (BCS 5.8) at the start of the trial. Each pen was assigned two steers and two heifers. These 32 pens were randomly assigned to the 8 treatments. Each pen was a two-acre pasture and most grass was grazed off at the start of the trial but warm weather allowed some grass growth during February and March. Molasses slurries were fed on two days each week (equivalent amount for 3 or 4 days at each feeding) at the equivalent daily rate. Molasses slurries were hand mixed in each pen and fed in open troughs. Alimet® was pre-weighed in the laboratory and mixed in the supplement of the assigned pen at each feeding. Bermuda grass hay was offered ad libitum in hay rings outside (no shelter) and molasses slurries were limit fed during the 112-day trial (December thru April). Hay not consumed was collected, weighed, sampled (dry matter analyzed), and removed from the pens every 6 to 8 weeks during the trial. Water and a mineral-vitamin supplement were offered ad libitum.
Supplement consumption, hay consumption, full weight, shrunk weight (beginning and end only), height, body condition, and blood urea (2 calves/pen) were measured at 28-day intervals during the 112-day trial. Supplement ingredients were sampled twice monthly and each hay bale was weighed and sampled prior to feeding. Supplement ingredients were analyzed for dry matter, organic matter, crude protein, bypass protein, amino acids, and minerals. Hay samples were analyzed for dry matter, organic matter, crude protein, amino acids, in vitro organic matter digestibility, neutral detergent fiber, and minerals.

[2] = 0 to 6 month old calves, hay plus compound feed; cited from earlier work
[3] = 2 gm bypass TSAA/d (Alimet 5.7 g/d)
[4] = 4 gm bypass TSAA/d (Alimet 11.4 g/d)
[5] = 6 gm bypass TSAA/d (Alimet 17 g/d)
[6] = 8 gm bypass TSAA/d (Alimet 22.7 g/d)

## CSCCC(O)C(=O)O (centres unmarked) [Alimet, 2-hydroxy-4-(methylthio)butanoic acid]
[1]; [3]
  Daily gain, 0-28 days (full wt): 1.58 lb/d
  Daily gain, 0-112 days (full wt): 1.61 lb/d
  Daily gain, 1-113 days (shrunk wt): 1.35^bc lb/d
  Daily gain, 28-56 days (full wt): 1.92 lb/d
  Daily gain, 56-84 days (full wt): 1.09 lb/d
  Daily gain, 84-112 days (full wt): 1.90 lb/d
  Feed consumed, Hay: 11.23^b lb/d DM
  Feed consumed, Supplement: 4.51^a lb/d DM
  Feed consumed, Total: 15.74^b lb/d DM
  Feed efficiency, Gain/TDN: .149^acd
  Feed efficiency, Gain/feed DM: .087^c
  Height change (0-112 days): 2.73 in.
  BCS change (0-112 days): +.14
  Added gain: .17 lb/d
  TDN consumed: 9.21^b lb/d
[1]; [4]
  Daily gain, 0-28 days (full wt): 1.88 lb/d
  Daily gain, 0-112 days (full wt): 1.53 lb/d
  Daily gain, 1-113 days (shrunk wt): 1.31^ab lb/d
  Daily gain, 28-56 days (full wt): 1.46 lb/d
  Daily gain, 56-84 days (full wt): .99 lb/d
  Daily gain, 84-112 days (full wt): 1.82 lb/d
  Feed consumed, Hay: 10.49^b lb/d DM
  Feed consumed, Supplement: 4.51^a lb/d DM
  Feed consumed, Total: 14.99^b lb/d DM
  Feed efficiency, Gain/TDN: .149^acd
  Feed efficiency, Gain/feed DM: .088^c
  Height change (0-112 days): 2.45 in.
  BCS change (0-112 days): +.09
  Added gain: .13 lb/d
  TDN consumed: 8.84^b lb/d
[1]; [5]
  Daily gain, 0-28 days (full wt): 1.77 lb/d
  Daily gain, 0-112 days (full wt): 1.69 lb/d
  Daily gain, 1-113 days (shrunk wt): 1.44^bc lb/d
  Daily gain, 28-56 days (full wt): 1.68 lb/d
  Daily gain, 56-84 days (full wt): 1.40 lb/d
  Daily gain, 84-112 days (full wt): 1.98 lb/d
  Feed consumed, Hay: 11.04^b lb/d DM
  Feed consumed, Supplement: 4.45^a lb/d DM
  Feed consumed, Total: 15.49^b lb/d DM
  Feed efficiency, Gain/TDN: .159^ad
  Feed efficiency, Gain/feed DM: .094^a
  Height change (0-112 days): 2.80 in.
  BCS change (0-112 days): +.18
  Added gain: .26 lb/d
  TDN consumed: 9.13^b lb/d
[1]; [6]
  Daily gain, 0-28 days (full wt): 1.24 lb/d
  Daily gain, 0-112 days (full wt): 1.52 lb/d
  Daily gain, 1-113 days (shrunk wt): 1.31^ab lb/d
  Daily gain, 28-56 days (full wt): 1.49 lb/d
  Daily gain, 56-84 days (full wt): .93 lb/d
  Daily gain, 84-112 days (full wt): 2.48 lb/d
  Feed consumed, Hay: 10.49^b lb/d DM
  Feed consumed, Supplement: 4.08^b lb/d DM
  Feed consumed, Total: 14.57^ab lb/d DM
  Feed efficiency, Gain/TDN: .154^d
  Feed efficiency, Gain/feed DM: .091^a
  Height change (0-112 days): 2.79 in.
  BCS change (0-112 days): +.08
  Added gain: .13 lb/d
  TDN consumed: 8.56^ab lb/d
[1]; Alimet 5.7 g/d, pen 1
  Liquid supplement refusal: molasses based supplement remaining from last feeding: 25 pounds
[1]; Alimet 11.4 g/d, pen 8
  Liquid supplement refusal: molasses based supplement remaining from last feeding: 35 pounds
[1]; Alimet 17 g/d, pen 5
  Liquid supplement refusal: molasses based supplement remaining from last feeding: 15 pounds
[1]; Alimet 22.7 g/d, pen 4, feeding date 2.19
  Liquid supplement refusal: molasses based supplement remaining from last feeding: 40 pounds
[1]; Alimet 22.7 g/d, pen 4, feeding date 12.18
  Liquid supplement refusal: molasses based supplement remaining from last feeding: 20 pounds
[1]; Alimet 22.7 g/d, pen 4, feeding date 12.22
  Liquid supplement refusal: molasses based supplement remaining from last feeding: 25 pounds
[1]; Alimet 22.7 g/d, pen 4, feeding date 12.26
  Liquid supplement refusal: molasses based supplement remaining from last feeding: 30 pounds
[1]; Alimet 22.7 g/d, pen 4, feeding date 12.29
  Liquid supplement refusal: molasses based supplement remaining from last feeding: 35 pounds
[1]; Alimet 22.7 g/d, pen F, feeding date 1.22
  Liquid supplement refusal: molasses based supplement remaining from last feeding: 20 pounds
[1]; Alimet 22.7 g/d, pen F, feeding date 3.01
  Liquid supplement refusal: molasses based supplement remaining from last feeding: 35 pounds

## CSCCC(O)C(=O)[O-].CSCCC(O)C(=O)[O-].[Ca+2] (centres unmarked) [calcium salt of 2-hydroxy-4-(methylthio)butanoic acid]
[2]
  Increase of average daily weight gain over control calves: 8-10%
